Laboratory results as given in PMC9234964, “Design, Synthesis, and Biological Evaluation of a Novel Series of 4-Guanidinobenzoate Derivatives as Enteropeptidase Inhibitors with Low Systemic Exposure for the Treatment of Obesity” (Journal of Medicinal Chemistry, 2022).
Like-named read-outs stand apart in the source and are kept apart here.

Columns and labels:
[1] = biological target: rat enteropeptidase (Rattus norvegicus, UniProt A0ABK0LTS6); test: Rat enteropeptidase enzyme assay; format: biochemical
Chain of rat enteropeptidase (A0ABK0LTS6 829-1068): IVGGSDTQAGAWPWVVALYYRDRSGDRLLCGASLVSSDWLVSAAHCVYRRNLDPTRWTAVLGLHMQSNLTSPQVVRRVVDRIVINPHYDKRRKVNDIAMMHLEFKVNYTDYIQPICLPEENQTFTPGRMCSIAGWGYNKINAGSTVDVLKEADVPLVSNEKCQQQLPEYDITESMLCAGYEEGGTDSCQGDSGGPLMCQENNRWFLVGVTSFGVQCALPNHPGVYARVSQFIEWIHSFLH
Protocol: The rat enteropeptidase catalytic subunit (aa 818-1057, GenBank accession no. XM_017597944) was cloned into the BglII-NotI site of the pET32a vector (Millipore). The active rat enteropeptidase catalytic subunit was obtained as described previously.[36] The rat recombinant enteropeptidase was diluted with an assay buffer (50 mM Tricine (pH 8.0), 0.01(w/v)% Tween 20, 10 mM CaCl2) to prepare a 2.4 ng/mL enzyme solution. Subsequently, 5FAM–Abu–[…]CPQ2)–Lys–Lys–NH2 (purity: 97.2%, CPC Scientific, Inc.) was diluted with an assay buffer to prepare a 5.4 μM substrate solution. Compounds were dissolved in DMSO and then diluted in the assay buffer. The compound solution (5 μL/well) and the substrate solution (5 μL/well) were added to a 384-well black plate (#784076, Greiner Bio-One) and mixed. Then, the enzyme solution (5 μL/well) was added to the plate and mixed to start the reaction. The fluorescence intensity was measured at an excitation wavelength of 485 nm and a fluorescence wavelength of 535 nm using a fluorescence plate reader EnVision (PerkinElmer Inc.). […]
(§1) Inhibition rate (%) = (1 – (fluorescence intensity of the test compound supplemented group – fluorescence intensity of the control group)/(fluorescence intensity of the test compound non-supplemented group – fluorescence intensity of the control group)) × 100.

[2] = tested on: DIO rats; test: Anti-obesity effects in male DIO rats (repeated dosing, 4 weeks); format: in vivo, rat; conditions: oral, 6b 1, 3 and 10 mg/kg; for body weight change / food intake: (S)-5b 10 mg/kg; for fecal protein output: day 28, (S)-5b 10 mg/kg
Protocol: Six-week-old male DIO F344/Jcl rats were obtained from CLEA Japan (Tokyo, Japan) and fed with a HFD D12451 (45 kcal % fat, 20 kcal % protein, and 35 kcal % carbohydrate; Research Diets, Inc.). The study involved six groups of rats (n = 6): vehicle (0.5% MC), 6b (1, 3, and 10 mg/kg), (S)-5b (SCO-792) (10 mg/kg), and sibutramine (1 mg/kg). […] were orally administered with either the vehicle or compounds starting at 36 weeks of age for 4 weeks. The body weight was monitored every 1–4 days for 4 weeks. The change in body weight is presented as a percentage of the initial body weight. Feces were collected on day 28 and evaluated for pharmacodynamic markers.

[3] = tested on: Human Multi-drug Resistance 1 (MDR-1) Expressing Cells; test: Membrane permeability with MDR1-expressing cells (A to B); format: in vitro ADME; conditions: apical to basolateral, 10 μmol/L, 2 h
Protocol: The transcellular transport study was performed as reported previously.[40] In brief, the cells were grown in a HTS transwell 96 well permeable support (pore size 0.4 μm, 0.143 cm^2 surface area) with a polyethylene terephthalate membrane (Corning Life Sciences, Lowell, MA, USA) at a density of 1.125 × 10^5 cells/well. The cells were preincubated with M199 at 37 °C for 30 min. Subsequently, transcellular transport was initiated by the addition of M199 to apical compartments containing 10 μmol/L test compounds and terminated by the removal of each assay plate after 2 h. The aliquots in the opposite compartments were subjected to be measured for compound concentration by LC–MS/MS. Permeability was calculated using the permeated compound concentration.

[4] = biological target: T1, human enteropeptidase (Homo sapiens, UniProt P98073); test: Human enteropeptidase enzyme assay; format: biochemical; conditions: for IC50: substrate and compound at room temperature, 95% confidence intervals in parentheses
T1 construct: purchased ITSI-Biosciences, LLC #REN-260
T1 sequence (P98073 whole entry): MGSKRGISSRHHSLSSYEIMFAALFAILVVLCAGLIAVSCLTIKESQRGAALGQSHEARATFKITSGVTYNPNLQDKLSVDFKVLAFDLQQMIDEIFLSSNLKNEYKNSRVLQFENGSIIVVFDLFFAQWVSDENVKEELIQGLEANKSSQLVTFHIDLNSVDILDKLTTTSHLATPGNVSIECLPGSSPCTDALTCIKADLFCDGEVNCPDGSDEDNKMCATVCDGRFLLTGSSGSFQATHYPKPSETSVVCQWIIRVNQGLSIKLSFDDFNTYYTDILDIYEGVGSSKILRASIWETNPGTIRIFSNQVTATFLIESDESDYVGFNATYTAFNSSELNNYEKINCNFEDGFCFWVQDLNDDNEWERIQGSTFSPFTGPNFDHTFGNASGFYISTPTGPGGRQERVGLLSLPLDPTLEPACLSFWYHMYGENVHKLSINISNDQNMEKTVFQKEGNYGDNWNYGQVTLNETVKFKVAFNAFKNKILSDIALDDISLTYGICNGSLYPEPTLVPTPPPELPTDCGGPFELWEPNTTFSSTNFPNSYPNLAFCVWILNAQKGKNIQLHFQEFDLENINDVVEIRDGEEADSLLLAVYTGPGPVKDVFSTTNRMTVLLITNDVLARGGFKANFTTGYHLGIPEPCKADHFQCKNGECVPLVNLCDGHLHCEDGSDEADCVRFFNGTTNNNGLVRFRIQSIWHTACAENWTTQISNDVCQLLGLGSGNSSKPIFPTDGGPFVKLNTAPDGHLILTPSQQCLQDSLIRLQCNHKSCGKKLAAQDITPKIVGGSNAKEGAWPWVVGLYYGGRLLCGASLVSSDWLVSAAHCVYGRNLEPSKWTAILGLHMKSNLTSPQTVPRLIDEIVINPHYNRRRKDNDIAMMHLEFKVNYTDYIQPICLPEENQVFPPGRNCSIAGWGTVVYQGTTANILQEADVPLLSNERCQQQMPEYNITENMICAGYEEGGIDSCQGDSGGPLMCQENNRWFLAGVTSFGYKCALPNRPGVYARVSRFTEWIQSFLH
Protocol: Human recombinant enteropeptidase (#REN-260, ITSI-Biosciences, LLC) was diluted with an assay buffer (50 mM tricine (pH 8.0), 0.01(w/v)% Tween 20, 10 mM CaCl2) to prepare a 24 mU/mL enzyme solution. Subsequently, 5FAM–Abu–[…]CPQ2)–Lys–Lys–NH2 (purity: 97.2%, CPC Scientific, Inc.) was diluted with an assay buffer to prepare a 2.1 μM substrate solution. Compounds were dissolved in DMSO and then diluted in the assay buffer. The compound solution (5 μL/well) and the substrate solution (5 μL/well) were added to a 384-well black plate (#784076, Greiner Bio-One) and mixed. Then, the enzyme solution (5 μL/well) was added to the plate and mixed to start the reaction. The fluorescence intensity was measured at an excitation wavelength of 485 nm and a fluorescence wavelength of 535 nm using a fluorescence plate reader EnVision (PerkinElmer Inc.). Also, the same reaction as above was performed except that the test compound was not added (test compound non-supplemented group). In addition, the same reaction as above was performed except that neither the test compound nor the enzyme was added (control group).
as §1

[5] = Pharmacokinetics in rats; format: in vivo, rat
Protocol: […] After administration, blood samples were collected and centrifuged to obtain plasma specimens. The compound concentrations in the plasma were measured using LC–MS/MS.

[6] = Aqueous stability at pH 1.2/6.8; format: physicochemical; conditions: 24 h; for stability at pH 1.2 (% decomposed): pH 1.2, 37 °C; for stability at pH 6.8 (% decomposed): pH 6.8, 37 °C
Protocol: Sample solutions in pH 1.2/6.8 media (first/second fluids for the disintegration test in the Japanese Pharmacopoeia 17th edition, including 10% dimethyl sulfoxide if needed, 10 μg/mL) were prepared for the compounds and incubated at 37 °C. The sample solutions were measured initially and at 24 h using HPLC, and peak analysis was conducted. Residual contents (%) of the compounds in pH 1.2/6.8 media at 37 °C after 24 h of incubation of the initial solutions were calculated using the peak areas.

[7] = tested on: High-Fat-Diet-Fed Mice; test: Increase in fecal protein output in high-fat-diet-fed mice; format: in vivo, mouse; conditions: for fecal protein output (fold of 2a): oral
Protocol: A high-fat diet (HFD)-fed mouse (D12079B diet, male, 14–21 weeks old) was used for the in vivo assay. For compound screening, mice were orally administered with either the test compound (10 mg/kg) or 0.5% methylcellulose (MC) as a vehicle control. For the assessment of efficacy by systemic exposure of the compound, mice were subcutaneously administered with compound 2a (10 mg/kg) or saline as a vehicle control and compared with those administered oral treatment (60 mg/kg). Doses were selected to achieve equivalent systemic exposure as the area under the curve over 24 h based on pharmacokinetic data of both oral and subcutaneous administration. Whole feces were collected overnight, and the fecal protein output was evaluated as described previously.[33]

[8] = tested on: DIO mice; conditions: cited from earlier work
[9] = Plasma exposure of 2a in mice (oral and subcutaneous); format: in vivo; conditions: male, mouse, read-out: AUC0-24h
[10] = Kinetic aqueous solubility at pH 1.2/6.8; format: physicochemical; conditions: aqueous medium, kinetic from dmso stock
[11] = biological target: T1, human enteropeptidase; test: Dissociation assay (recovery of active enzyme after rapid dilution); format: biochemical; conditions: rapid dilution after 2 h preincubation of compound and enzyme
Text: Although not all reaction constants for 1c could be identified, the in vitro IC50 value could be used as an indicator of the combination of k1, k–1, and k2. In this case, the IC50 value of a compound is derived from its affinity for enteropeptidase (k1 and k–1) and its reactivity against enteropeptidase (k2). […] As the affinity of a compound for enteropeptidase is expected to largely contribute to the IC50 value based on initial velocities (IC50(initial)) relative to the IC50 value based on the steady state (IC50(app)), we performed chemical modifications based on IC50(initial). […] Because T1/2 can be an indicator of k3, we focused on compounds with low IC50(initial) values and long T1/2 values.
For dissociation assay, compounds were dissolved in DMSO and then diluted in assay buffer (50 mM Tricine pH 8.0, 0.01(w/v)% Tween20, 10 mM CaCl2). 10 μL of compound solution was added in 96-well plate (corning), and then, 10 μL of 100 mU/mL human recombinant enteropeptidase (ITSI-Biosciences) solution was added into the plate and incubated at room temperature for 2 h. […] After incubation, 2 μL of the compound-enzyme mixture was transferred to a 96-well black plate (Corning) and 200 μL of substrate solution (3 μM 5FAM–Abu–[…]CPQ2)–Lys–Lys–NH2 (CPC Scientific)) was added into the well. By rapid dilution, the inhibitor concentration went to 10-fold below the IC50 from 10-fold above the IC50. The fluorescence was measured each 2 min at excitation wavelength 485 nm and emission wavelength 535 nm by EnVision (Perkin Elmer). The progress curves were fitted to following equation to determine the values for koff and dissociation half-life T1/2 according to the following equations. [drawing 4] 1 where t is time and F is fluorescence from initial rate vo to steady state rate vs. [drawing 5] 2

[12] = PAMPA (parallel artificial membrane permeability assay); format: in vitro ADME; conditions: PAMPA
[13] = tested on: enteropeptidase; design: method as in PMID 33033171; conditions: cited from earlier work
[14] = 6 min incubation of enzyme, read-out: Human enteropeptidase IC50(initial)
[15] = 120 min incubation of enzyme, read-out: Human enteropeptidase IC50(app)

MDR1 (A to B) [3] [nm/s]	IC50 [4, 14] [nM]	IC50 [4, 15] [nM]	stability at pH 1.2 (% decomposed) [6] [% decomposed]	stability at pH 6.8 (% decomposed) [6] [% decomposed]	SMILES	body weight change [2]	food intake [2]	fecal protein output [2]	fecal protein output (fold of 2a) ([7]; 10 mg/kg)	body weight [8]	further results
0	20	1.2	1.1	7.3	N=C(N)Nc1ccc(C(=O)Oc2cccc(C3=NO[C@](CC(=O)O)(C(=O)O)C3)c2)cc1 [6b, (5R)-3-{3-[(4-Carbamimidamidobenzoyl)oxy]phenyl}-5-(carboxymethyl)-4,5-dihydro-1,2-oxazole-5-carboxylic Acid]	potent body weight loss in a dose-dependent manner	significant reduction	significant increase	1.29 fold of 2a		IC50 ([1]; 120 min, supplement csv, unit inferred, read-out: rat enteropeptidase IC50 (120 min)): 1.5 nM; melting point: 199 °C (dec.); PK in rats, plasma concentration ([5]; 1 mg/kg p.o., below the lower limit of quantitation): < 1 ng/mL
0	94	5.9	2.5	5.0	Cl.N=C(N)Nc1ccc(C(=O)Oc2ccc(CC(=O)N[C@@H](CC(=O)O)C(=O)O)cc2)cc1 [2a, N-({4-[(4-Carbamimidamidobenzoyl)oxy]phenyl}acetyl)-L-aspartic Acid Hydrochloride]				(1.00) fold of 2a		AUC(0-t) at 24 h ([9]; oral, 60 mg/kg): 9820 ± 3740 ng·h/mL; AUC(0-t) at 24 h ([9]; sc, subcutaneous, 10 mg/kg): 16000 ± 2640 ng·h/mL; solubility kinetic ([10]; pH 1.2, simulated gastric fluid, read-out: Kinetic aqueous solubility at pH 1.2): 76 µg/mL; solubility kinetic ([10]; pH 6.8, aqueous buffer, read-out: Kinetic aqueous solubility at pH 6.8): > 97 µg/mL; T1/2, half-time of dissociation from human enteropeptidase [11]: >2 h; Papp ([12]; pH 7.4, read-out: PAMPA at pH 7.4): 0.2 ×10⁻⁶ cm/s; Papp ([12]; pH 5.0, read-out: PAMPA at pH 5.0): 0.1 ×10⁻⁶ cm/s; fold enhancement in IC50(initial) relative to 1c ([4]; 6 min, glycine replaced with aspartic acid): five-fold; fecal protein content vs vehicle ([7]; oral administration, 60 mg/kg): significant increase; fecal protein levels vs vehicle ([7]; subcutaneous administration, 10 mg/kg): did not increase
					CN(C)C(=O)COC(=O)Cc1ccc(OC(=O)c2ccc(NC(=N)N)cc2)cc1 [camostat]					induced body weight loss	enteropeptidase activity [13]: inhibited enteropeptidase activity

SMILES	MDR1 (A to B) [3] [nm/s]	IC50 [4, 14] [nM]	IC50 [4, 15] [nM]	stability at pH 1.2 (% decomposed) [6] [% decomposed]	stability at pH 6.8 (% decomposed) [6] [% decomposed]	body weight change [2]	food intake [2]	fecal protein output [2]	fecal protein output (fold of 2a) ([7]; 10 mg/kg)	body weight [8]	further results
N=C(N)Nc1ccc(C(=O)Oc2ccc3c(c2)OC[C@H]3CC(=O)N[C@@H](CC(=O)O)C(=O)O)cc1.O [(S)-5b, N-({(3S)-6-[(4-Carbamimidamidobenzoyl)oxy]-2,3-dihydro-1-benzofuran-3-yl}acetyl)-L-aspartic Acid Hydrate]	0	68		0.2	4.4	body weight loss	reduction	significant elevation	1.28 fold of 2a	potent body weight reduction	IC50 [1]: 4.6 nM; PK in rats BA ([5]; 10 mg/kg p.o. and 0.2 mg/kg i.v.): 0.4%
